Results as given in ChEMBL document CHEMBL4765296, “Purine/purine isoster based scaffolds as new derivatives of benzamide class of HDAC inhibitors” (Eur J Med Chem, 2020).
Active and inactive are the calls of the source. The rule behind the calls is not given here.

How the values were obtained:
MDA-MB-468 = assay: Cytotoxicity in human MDA-MB-468 cells assessed as reduction in cell viability incubated for 72 hrs by MTT assay; type: functional, cell-based
cells = conditions: Homo sapiens, YCC-11, 72 h
Description: Cytotoxicity against human HDACi-sensitive YCC-11 cells assessed as reduction in cell growth incubated for 72 hrs by MTS assay

HepG2 = assay: cells; conditions: Homo sapiens, HepG2, 72 h
Description: Antiproliferative activity against human HepG2 cells assessed as cell growth inhibition measured after 72 hrs by MTT assay

[1] = Cytotoxicity against human HDACi-sensitive YCC3 cells assessed as reduction in cell growth incubated for 72 hrs by MTS assay; type: functional, cell-based; conditions: YCC3/7, 72 h
MDA-MB-231 [2] = assay: Antiproliferative activity against human MDA-MB-231 cells assessed as cell growth inhibition measured after 72 hrs by MTT assay; type: functional, cell-based; conditions: MDA-MB-231, 72 h
MCF7 = assay: Cytotoxicity in human MCF7 cells assessed as reduction in cell viability incubated for 72 hrs by MTT assay; type: functional, cell-based
Histone deacetylase 9 = Histone deacetylase 9 (Homo sapiens, UniProt Q9UKV0); assay: Inhibition of human recombinant HDAC9 expressed in baculovirus using fluorogenic peptide p53 residues 379-382 (RHKK(Ac)AMC) as substrate by Fluorescence analysis
Histone deacetylase 5 = Histone deacetylase 5 (Homo sapiens, UniProt Q9UQL6); assay: Inhibition of human recombinant HDAC5 expressed in baculovirus using fluorogenic peptide p53 residues 379-382 (RHKK(Ac)AMC) as substrate by Fluorescence analysis
Histone deacetylase 7 = target: T1, Histone deacetylase 7 (Homo sapiens, UniProt Q8WUI4); assay: Inhibition of human recombinant HDAC7 expressed in baculovirus using fluorogenic peptide p53 residues 379-382 (RHKK(Ac)AMC) as substrate by Fluorescence analysis
T1 sequence (Q8WUI4 whole entry): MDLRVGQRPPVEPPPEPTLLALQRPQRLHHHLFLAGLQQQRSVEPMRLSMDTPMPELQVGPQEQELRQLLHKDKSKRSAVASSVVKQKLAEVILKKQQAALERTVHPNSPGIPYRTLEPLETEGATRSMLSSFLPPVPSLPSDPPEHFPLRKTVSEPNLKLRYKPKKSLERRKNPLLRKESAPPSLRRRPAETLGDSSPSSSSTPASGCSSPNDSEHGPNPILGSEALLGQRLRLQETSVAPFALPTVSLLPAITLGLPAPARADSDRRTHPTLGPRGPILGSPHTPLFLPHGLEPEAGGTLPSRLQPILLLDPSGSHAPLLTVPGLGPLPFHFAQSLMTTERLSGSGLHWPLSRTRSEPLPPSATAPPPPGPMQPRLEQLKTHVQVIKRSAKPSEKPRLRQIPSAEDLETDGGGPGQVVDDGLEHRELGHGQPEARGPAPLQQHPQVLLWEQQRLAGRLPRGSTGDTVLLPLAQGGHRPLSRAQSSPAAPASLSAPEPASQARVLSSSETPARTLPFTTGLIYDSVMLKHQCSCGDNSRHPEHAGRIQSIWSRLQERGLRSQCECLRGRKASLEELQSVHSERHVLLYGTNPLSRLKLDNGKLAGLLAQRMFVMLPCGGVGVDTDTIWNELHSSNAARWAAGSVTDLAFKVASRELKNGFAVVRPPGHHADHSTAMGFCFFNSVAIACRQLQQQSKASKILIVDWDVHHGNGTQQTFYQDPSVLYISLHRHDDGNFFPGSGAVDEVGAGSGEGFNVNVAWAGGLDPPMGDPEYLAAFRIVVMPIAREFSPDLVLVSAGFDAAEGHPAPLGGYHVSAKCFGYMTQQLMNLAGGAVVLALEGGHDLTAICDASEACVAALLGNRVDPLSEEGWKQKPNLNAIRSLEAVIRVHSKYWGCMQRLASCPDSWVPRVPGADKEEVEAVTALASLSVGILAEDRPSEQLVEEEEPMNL

Histone deacetylase 4 = Histone deacetylase 4 (Homo sapiens, UniProt P56524); assay: Inhibition of human recombinant HDAC4 expressed in baculovirus using fluorogenic peptide p53 residues 379-382 (RHKK(Ac)AMC) as substrate by Fluorescence analysis
MDA-MB-231 [3] = assay: Induction of cell cycle arrest in human MDA-MB-231 cells assessed as accumulation of cells at G1 phase at 4 uM for 24 hrs in presence of nocodazole by PI staining based flow cytometry analysis; type: functional
MDA-MB-231 [4] = assay: Induction of cell cycle arrest in human MDA-MB-231 cells assessed as accumulation of cells at subG1 phase at 16 uM for 48 hrs by PI staining based flow cytometry analysis; type: functional
MDA-MB-231 [5] = assay: Induction of cell cycle arrest in human MDA-MB-231 cells assessed as reduction in population between G1 to G2/M phases at 4 uM for 24 hrs by PI staining based flow cytometry analysis; type: functional
MDA-MB-231 [6] = assay: Induction of apoptosis in human MDA-MB-231 cells assessed as increase in cleaved PARP-1 level incubated for 24 hrs by Western blot analysis; type: functional, cell-based
MDA-MB-231 [7] = assay: Induction of cell cycle arrest in human MDA-MB-231 cells assessed as reduction in population at S phase at 4 uM for 24 hrs by PI staining based flow cytometry analysis; type: functional
MDA-MB-231 [8] = assay: Induction of apoptosis in human MDA-MB-231 cells assessed as increase in cleaved caspase-8 level incubated for 24 hrs by Western blot analysis; type: functional, cell-based
MDA-MB-231 [9] = assay: Induction of apoptosis in human MDA-MB-231 cells assessed as increase in cleaved caspase-3 level incubated for 24 hrs by Western blot analysis; type: functional, cell-based

Histone deacetylase 4, sequence (P56524 whole entry, the tested form may be a part): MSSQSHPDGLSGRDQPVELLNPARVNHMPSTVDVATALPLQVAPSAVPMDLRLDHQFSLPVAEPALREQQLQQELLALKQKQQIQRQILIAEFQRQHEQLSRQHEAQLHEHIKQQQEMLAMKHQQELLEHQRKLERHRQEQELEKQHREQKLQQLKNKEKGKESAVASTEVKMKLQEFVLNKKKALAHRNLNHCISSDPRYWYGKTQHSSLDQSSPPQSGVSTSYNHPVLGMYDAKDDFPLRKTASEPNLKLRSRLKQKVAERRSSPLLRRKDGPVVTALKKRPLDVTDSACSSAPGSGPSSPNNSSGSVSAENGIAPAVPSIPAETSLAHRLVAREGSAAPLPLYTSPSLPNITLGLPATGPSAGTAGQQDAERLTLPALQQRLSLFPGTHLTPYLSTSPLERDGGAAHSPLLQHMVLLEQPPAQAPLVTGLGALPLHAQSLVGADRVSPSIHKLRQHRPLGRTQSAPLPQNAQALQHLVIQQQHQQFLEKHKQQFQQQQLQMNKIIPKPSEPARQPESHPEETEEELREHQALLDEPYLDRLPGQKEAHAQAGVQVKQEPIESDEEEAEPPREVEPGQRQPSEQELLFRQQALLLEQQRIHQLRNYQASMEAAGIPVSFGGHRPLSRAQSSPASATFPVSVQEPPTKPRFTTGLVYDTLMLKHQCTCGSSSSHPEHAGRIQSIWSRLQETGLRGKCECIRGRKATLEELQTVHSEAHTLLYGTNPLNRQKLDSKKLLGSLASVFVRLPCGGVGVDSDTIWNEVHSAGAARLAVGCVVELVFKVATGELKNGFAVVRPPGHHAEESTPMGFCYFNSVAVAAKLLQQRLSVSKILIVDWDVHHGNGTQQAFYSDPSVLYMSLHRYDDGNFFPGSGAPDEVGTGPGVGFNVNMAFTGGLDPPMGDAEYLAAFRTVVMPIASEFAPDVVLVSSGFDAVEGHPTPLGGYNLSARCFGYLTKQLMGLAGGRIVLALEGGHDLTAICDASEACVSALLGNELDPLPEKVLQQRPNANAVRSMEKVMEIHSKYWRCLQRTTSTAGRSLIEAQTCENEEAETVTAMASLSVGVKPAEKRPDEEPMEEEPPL
Histone deacetylase 9, sequence (Q9UKV0 whole entry, the tested form may be a part): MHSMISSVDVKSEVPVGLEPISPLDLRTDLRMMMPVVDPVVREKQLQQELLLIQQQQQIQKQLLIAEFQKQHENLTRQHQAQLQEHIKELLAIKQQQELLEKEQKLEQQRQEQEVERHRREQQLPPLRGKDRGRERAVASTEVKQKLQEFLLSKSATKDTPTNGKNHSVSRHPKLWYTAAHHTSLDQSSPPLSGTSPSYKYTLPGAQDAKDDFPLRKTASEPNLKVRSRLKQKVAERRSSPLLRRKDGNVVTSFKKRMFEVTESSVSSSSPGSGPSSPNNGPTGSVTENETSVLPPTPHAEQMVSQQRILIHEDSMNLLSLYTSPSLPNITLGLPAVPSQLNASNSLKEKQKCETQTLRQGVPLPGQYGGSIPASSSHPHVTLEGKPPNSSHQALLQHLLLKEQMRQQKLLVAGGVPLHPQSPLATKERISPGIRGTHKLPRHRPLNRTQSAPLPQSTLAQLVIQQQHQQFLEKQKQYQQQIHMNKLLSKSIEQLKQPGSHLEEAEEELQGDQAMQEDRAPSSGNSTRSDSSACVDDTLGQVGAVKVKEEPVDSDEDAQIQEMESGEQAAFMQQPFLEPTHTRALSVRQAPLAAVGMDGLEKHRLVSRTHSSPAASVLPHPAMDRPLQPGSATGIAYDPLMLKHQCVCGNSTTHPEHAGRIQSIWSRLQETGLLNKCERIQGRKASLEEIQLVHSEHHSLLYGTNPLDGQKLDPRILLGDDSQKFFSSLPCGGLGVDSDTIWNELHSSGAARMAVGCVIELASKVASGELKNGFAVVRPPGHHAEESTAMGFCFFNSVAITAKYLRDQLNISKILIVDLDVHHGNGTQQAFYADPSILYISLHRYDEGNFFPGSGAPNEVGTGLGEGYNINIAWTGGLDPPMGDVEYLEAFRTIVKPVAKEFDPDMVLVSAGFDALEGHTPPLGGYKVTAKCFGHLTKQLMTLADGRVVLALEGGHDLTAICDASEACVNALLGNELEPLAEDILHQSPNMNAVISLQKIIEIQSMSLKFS
Histone deacetylase 5, sequence (Q9UQL6 whole entry, the tested form may be a part): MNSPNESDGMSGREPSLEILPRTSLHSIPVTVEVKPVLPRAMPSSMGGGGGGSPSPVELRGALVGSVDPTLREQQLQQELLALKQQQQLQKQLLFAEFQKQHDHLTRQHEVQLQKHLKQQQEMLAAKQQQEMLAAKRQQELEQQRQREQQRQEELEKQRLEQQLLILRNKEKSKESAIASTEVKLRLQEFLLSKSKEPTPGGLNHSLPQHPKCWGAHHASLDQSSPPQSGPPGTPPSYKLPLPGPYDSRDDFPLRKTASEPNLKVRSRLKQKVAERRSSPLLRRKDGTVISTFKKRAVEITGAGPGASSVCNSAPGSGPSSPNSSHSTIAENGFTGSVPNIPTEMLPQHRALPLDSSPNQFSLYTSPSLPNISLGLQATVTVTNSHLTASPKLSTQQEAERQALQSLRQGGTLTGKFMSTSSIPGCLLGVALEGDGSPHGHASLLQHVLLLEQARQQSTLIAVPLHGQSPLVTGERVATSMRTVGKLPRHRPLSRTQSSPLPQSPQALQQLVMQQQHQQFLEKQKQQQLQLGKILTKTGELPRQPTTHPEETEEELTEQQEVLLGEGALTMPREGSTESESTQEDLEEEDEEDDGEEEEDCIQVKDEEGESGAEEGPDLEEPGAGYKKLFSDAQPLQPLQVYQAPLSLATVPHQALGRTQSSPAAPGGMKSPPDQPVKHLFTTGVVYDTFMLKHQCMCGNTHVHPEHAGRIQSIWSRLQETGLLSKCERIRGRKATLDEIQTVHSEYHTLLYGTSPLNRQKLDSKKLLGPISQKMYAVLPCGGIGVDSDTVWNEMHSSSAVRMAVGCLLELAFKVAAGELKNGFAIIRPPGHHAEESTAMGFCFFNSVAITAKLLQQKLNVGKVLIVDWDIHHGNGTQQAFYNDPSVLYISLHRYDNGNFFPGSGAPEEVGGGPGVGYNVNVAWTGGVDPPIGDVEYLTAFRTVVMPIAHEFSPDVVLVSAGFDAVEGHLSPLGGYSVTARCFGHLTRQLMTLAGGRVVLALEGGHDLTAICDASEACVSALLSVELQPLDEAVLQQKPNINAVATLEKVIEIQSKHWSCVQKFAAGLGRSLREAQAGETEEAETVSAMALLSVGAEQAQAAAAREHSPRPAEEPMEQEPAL

Row | IC50 (cells) | IC50 (HepG2) | IC50 (MDA-MB-231 [2]) | IC50 (Histone deacetylase 9) | IC50 (Histone deacetylase 5) | IC50 (Histone deacetylase 7) | IC50 (Histone deacetylase 4) | Compound | Activity (MDA-MB-468) | IC50 [1] | Activity (MCF7) | Activity (MDA-MB-231 [3]) | Activity (MDA-MB-231 [4]) | Activity (MDA-MB-231 [5]) | Activity (MDA-MB-231 [6]) | Activity (MDA-MB-231 [7]) | Activity (MDA-MB-231 [8]) | Activity (MDA-MB-231 [9])
1 | 17.1 µM | > 8 µM | 3.6 µM | – | – | – | – | Nc1ccc(F)cc1NC(=O)c1ccc(CNC(=O)/C=C/c2cccnc2)cc1 | Active | 20.4 µM | Active | – | – | – | – | – | – | –
2 | – | – | – | > 10 µM | > 10 µM | > 10 µM | > 10 µM | Nc1nc(Nc2ccc(F)c(Cl)c2)c2ncn(Cc3ccc(C(=O)Nc4ccccc4N)cc3)c2n1 | – | – | – | – | – | – | – | – | – | –
3 | – | 4.54 µM | – | – | – | – | – | Nc1ccccc1NC(=O)c1ccc(CNC(=O)OCc2cccnc2)cc1 [ENTINOSTAT] | Active | 13 µM | Active | Active | Active | Active | Active | Active | Active | Active
